Two compounds from US4107188A, “Pregnanes” (Hoffmann-La Roche Inc., priority 1977, dated 1978) can be followed below.

Assay [1] has as its target T1, rat pancreatic lipase (Rattus norvegicus, UniProt P27657).
T1 sequence (P27657 17-465): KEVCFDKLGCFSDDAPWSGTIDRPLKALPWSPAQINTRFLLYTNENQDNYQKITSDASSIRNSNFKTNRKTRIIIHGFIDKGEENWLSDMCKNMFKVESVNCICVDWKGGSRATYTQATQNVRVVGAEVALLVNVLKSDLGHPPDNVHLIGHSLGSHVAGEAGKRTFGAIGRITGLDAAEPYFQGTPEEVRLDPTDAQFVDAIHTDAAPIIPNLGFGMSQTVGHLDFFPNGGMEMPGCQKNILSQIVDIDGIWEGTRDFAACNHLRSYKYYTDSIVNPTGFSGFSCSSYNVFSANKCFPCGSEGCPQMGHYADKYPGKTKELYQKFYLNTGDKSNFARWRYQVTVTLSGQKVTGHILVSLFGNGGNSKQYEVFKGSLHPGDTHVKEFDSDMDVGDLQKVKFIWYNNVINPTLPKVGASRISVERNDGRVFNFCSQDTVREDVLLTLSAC
Kind of assay: Inhibition of rat pancreatic lipase activity in vitro. It counts as biochemical. Particulars: 14C-triolein emulsion, pH 8.6, 20 min. at 37° C. The protocol: Dietary long-chain triglycerides must be hydrolyzed by pancreatic lipase in the duodenum before absorption can occur. […] The capacity of compounds of formula I to inhibit rat pancreatic lipase in vitro is seen by the action of the following compounds:
The ability of compounds to inhibit rat pancreatic lipase is determined by analyzing the nmoles of free fatty acid [oleic acid] released from [^14 C]-triolein. Compounds of A and B are added to an emulsion consisting of: 200,000 dmp ^14 C-triolein, 7.5 mg triolein, 0.75 mg sodium taurocholate, 15 mg bovine serum albumin and 0.9 ml 0.2 M tris-HCl - 0.15 M NaCl, pH 8.6, per assay. Water and/or pancreatic lipase is added to make an assay volume of 1.0 ml. The emulsion is incubated for 20 min. at 37° C in a shaking water bath. The reaction is stopped by the addition of isopropanol; H2 SO4 (40:1). The lipids are extracted twice with 3 ml volumes of hexane. The liberated fatty acids are extracted with 2 ml of 0.1 N aqueous KOH in 50% methanol. A 1 ml aliquot of the KOH layer is paced in a scintillation vial with 10 ml of 2,5-bis-2-(5-tertiarybutyl benzoxazolyl)thiophene. The radioactivity is determined by a scintillation counter. Data are expressed as nmoles free fatty acid [oleic acid] releated.

Assay [2] is described as follows: 4-14C-cholesterol appearance in thoracic duct lymph of rats after oral administration. Particulars: 100 mg orally, female albino rats, vs Na-TC control. It counts as in vivo, female albino rats (Charles River). The protocol:
The lowering of the cholesterol levels in mammals by the administration of the compound of formula I-B can be seen from the fact that when 100 mg of 7-(3alpha, 12alpha-dihydroxy-5beta-pregnane-20-yl)-3,5-heptadienoic acid was administered orally to female albino rats, the cholesterol level in the lymph was decreased after administration by 60% over the first 8 hours and 91% over the next 9 to 24 hr. period after administration as compared to the control. In this procedure, female albino rats (Charles River), weighing 300 ± 10 g were kept on a Purina chow diet ad libitum until the time of operation. […] This preparation enabled the production of lymph at a constant rate, the infusion of a bile salt, and the simultaneous collection of bile. All animals received, after operation, a continuous duodenal infusion of sodium taurocholate (Na-TC) in 0.85% NaCl. One day after operation, the rats were given, by stomach intubation, an emulsion containing about 4% triolein, 20 μC of 4-^14 C-cholesterol (Specific Activity 61.7 mC/mM, 159 μ C/mg), 2 mg of cholesterol, in addition to protein, carbohydrate, and saline. Both the Na-TC and the cholesterol carrier employed gave a single spot on either thin layer or glass fiber chromatograph so no further purification was attempted. […] An aliquot of the lipid extract was placed on a small piece of glass fiber paper and counted. […]

What is called Ki is a measure of affinity in units of concentration, obtained from inhibition or displacement. The low end stands for tighter binding, the high end for weaker binding. In turn, `C[C@H](C/C=C/C=C/CC(=O)O)[C@H]1CC[C@H]2[C@@H]3CC[C@@H]4C[C@H](O)CC[C@]4(C)[C@H]3C[C@H](O)[C@]12C` [Compound A, 7(3α,12α-dihydroxy-5β-pregnane-20-yl)-3,5-heptadienoic acid] displayed a Ki in assay [1] of 1 mM. The “decrease of cholesterol level in the lymph as compared to the control” value in assay [2] (9 to 24 hr. period after administration) came to 91%; in assay [2] (over the first 8 hours after administration) it was 60%.
In assay [1], `CC(CCCCC(=O)O)[C@H]1CC[C@H]2[C@@H]3CC[C@@H]4C[C@H](O)CC[C@]4(C)[C@H]3C[C@H](O)[C@]12C` (stereo partly drawn) [Compound B, 5-(3α,12α-dihydroxy-5βpregnane-20-yl)pentanoic acid] returned a Ki of 9 mM.
